Assay results from patent EP0102213A1, “Ethanolamine derivatives, pharmaceutical compositions containing them, and processes for preparing them” (BEECHAM GROUP PLC, priority 1982, dated 1984).
Counter-ions that a name gives are not always drawn.

Experiments:
right atrium = test: Cardiac activity: rate of the spontaneously beating isolated right atrium; design: species or system Sprague-Dawley male rats; conditions: rat right atrium; for Emax: intrinsic activity: maximal effect relative to isoprenaline maximum (isoprenaline = 1), read-out: Rate i.a.; for EC50: Krebs solution 32°C, concentration producing 50% of the compound's own maximum response
Protocol: (§1) Sprague-Dawley male rats (300-400 g) are killed and the right and left atria dissected out independently and mounted on a combined tissue holder/ electrode. The tissues are then immersed in a glass bath containing Krebs solution maintained at 32°C. The rate of the spontaneously beating right atrium (via an isometric transducer and a ratemeter) and the tension of the electrically paced left atrium (via an isometric transducer) are recorded on an Ml9 chart recorder.
(§2) After an initial stabilization period, the tissues are exposed to a maximal concentration of isoprenaline (10-^7M). The tissues are then washed several times until rate and tension return to baseline level. A dose-response curve to the test compound is then carried out.
(§3) Responses to each concentration of test compound are expressed as a percentage of the maximal responses to isoprenaline. Results are given in the form of (a) intrinsic activity (i.a.) (maximal effect of test compound with respect to isoprenaline maximum, i.e. isoprenaline intrinsic activity = 1) and (b) EC50 (the molar concentration at which the test compound produces 50% of its own maximum response).

left atrium = test: Cardiac activity: tension of the electrically paced isolated left atrium; design: species or system Sprague-Dawley male rats; conditions: rat left atrium; for Emax: intrinsic activity: maximal effect relative to isoprenaline maximum (isoprenaline = 1), read-out: Tension i.a.; for EC50: electrically paced, Krebs solution 32°C, concentration producing 50% of the compound's own maximum response
Protocol: as §1, §2, §3

genetically obese mice = test: Anti-obesity activity: carcass lipid after daily oral gavage for 28 days; type: in vivo; conditions: carcass composition
Protocol: The compounds were administered by oral gavage in water or carboxymethyl-cellulose suspension to genetically obese mice daily for 28 days. At the end of the time the carcass composition was determined.

Female CFLP mice = test: Hypoglycaemic activity: blood glucose after subcutaneous glucose load in fasted mice; type: in vivo; conditions: 24 h fasted female CFLP mice, glucose 1 g/Kg s.c. 30 min after dosing, 2 hour AUC versus water controls
Protocol: Female CFLP mice, weighing approximately 25 g, were fasted for 24 hours prior to the study. The compounds under study were administered orally as an aqueous solution to each of 6 mice. 30 minutes later a blood sample (10 ul) was obtained from the tail for the analysis of blood glucose. Immediately after taking this blood sample, glucose (lg/Kg body weight) was administered subcutaneously to each mouse. 6 mice were given water as a control. Blood samples were then obtained from each mouse at 30 minute intervals for 120 minutes.
Compounds that produced a significant (P<0.05) reduction of blood glucose, compared with control mice given water, at any time interval, were considered active. The area under the blood glucose curve over the 2 hour period after the administration of the glucose was calculated for each compound and compared with the value for control animals.

[1] = 13.4 mg/kg p.o. daily for 28 days

| SMILES | Emax (right atrium) [%] | EC50 (right atrium) [µM] | Emax (left atrium) [%] | g LIPID/MOUSE TREATED (genetically obese mice; 11.9 mg/kg p.o. daily for 28 days) [g] | % Reduction in area under Blood Glucose Curve (Female CFLP mice; 2.5 μmol/Kg orally) [%] | EC50 (left atrium) [µM] | g LIPID/MOUSE TREATED (genetically obese mice; [1]) [g] | % Reduction in area under Blood Glucose Curve (Female CFLP mice; 12.5 μmol/Kg orally) [%] |
| --- | --- | --- | --- | --- | --- | --- | --- | --- |
| CC(Cc1ccc(OCCN2CCN(C)CC2)cc1)NCC(O)c1cccc(C(F)(F)F)c1 (centres unmarked) [Example 14, N-[2-(4-(2-(1-(4-Methyl)piperazinyl)ethoxy)henyl)-1-methylethyl]-2-hydroxy-2-(3-trifluoromethylphenyl) ethanamine trihydrochloride, monohydrate] | 4 | 1.7 | 0 | 18.26 |  |  |  |  |
| Br.Br.Br.CC(Cc1ccc(OCCN2CCNCC2)cc1)NCC(O)c1cccc(C(F)(F)F)c1 (centres unmarked) [Example 3, N-[2-(4-(2-(1-Piperazinyl)ethoxy)phenyl)-1-methylethyl]-2-hydroxy-2-(3-trifluoromethylphenyl)ethanamine trihydrobromide] |  |  |  |  | 20 |  |  |  |
| CC(Cc1ccc(OCCN2CCN(c3ccccc3)CC2)cc1)NCC(O)c1cccc(C(F)(F)F)c1 (centres unmarked) [Example 2, N-[2-(4-(2-(1-(4-Phenyl)piperazinyl)ethoxy)phenyl)-1-methylethyl]-2-hydroxy-2-(3-trifluoromethylphenyl)ethan-amine trihydrobromide] |  |  | 0 |  | 64 |  |  |  |
| CC(Cc1ccc(OCCN2CCN(Cc3ccccc3)CC2)cc1)NCC(O)c1cccc(C(F)(F)F)c1 (centres unmarked) [Example 1, N-[2-(4-(2-(1-(4-Benzyl)piperazinyl)ethoxy)henyl)-1-methylethyl]-2-hydroxy-2-(3-trifluoromethylphenyl)ethanamine trihydrochloride] | 0 |  | 0 |  | 38 |  |  |  |
| CC(Cc1ccc(OCCN2CCN(c3ccc(Cl)cc3)CC2)cc1)NCC(O)c1cccc(C(F)(F)F)c1 (centres unmarked) [Example 10, N-[2-(4-(2-(1-(4-(4-Chlorophenyl))piperazinyl)ethoxy)-phenyl)-1-methylethyl]-2-hydroxy-2-(3-trifluoromethylphenyl)ethanamine trihydrochloride] | 86 | 20 | 100 |  |  | 27 |  |  |
| CC(Cc1ccc(OCCN2CCN(c3cccc(C(F)(F)F)c3)CC2)cc1)NCC(O)c1cccc(Cl)c1 (centres unmarked) [Example 13, N-[2-(4-(2-(1-(4-(3-Trifluoromethylphenyl))piperazinyl)-ethoxy)phenyl)-1-methylethyl]-2-hydroxy-2-(3-chlorophenyl) ethanamine trihydrochloride] | 7 | 0.035 | 33 |  |  | 45 | 16.40 |  |
| CC(Cc1ccc(OCCN2CCN(c3ccccc3)CC2)cc1)NCC(O)c1ccccc1 (centres unmarked) [Example 5, N-[2-(4-(2-(1-(4-Phenyl)piperazinyl)ethoxy)phenyl)-1-methylethyl]-2-hydroxy-2-phenylethanamine trihydrochloride] | 42 | 0.54 | 67 |  |  | 12 |  |  |
| CC(Cc1ccc(OCCN2CCN(c3cccc(Cl)c3)CC2)cc1)NCC(O)c1cccc(C(F)(F)F)c1 (centres unmarked) [Example 8, N-[2-(4-(2-(1-(4-(3-Chlorophenyl))piperazinyl)ethoxy)-phenyl)-1-methylethyl]-2-hydroxy-2-(3-trifluoromethylphenyl)ethanamine trihydrochloride] |  |  |  |  |  |  | 18.06 |  |
| CC(Cc1ccc(OCCN2CCN(c3ccccc3)CC2)cc1)NCC(O)c1cccc(Cl)c1F (centres unmarked) [Example 7, N-[2-(4-(2-(1-(4-Phenyl)piperazinyl)ethoxy)phenyl)-1-methylethyl]-2-hydroxy-2-(2-fluoro-3-chlorophenyl)ethanamine trihydrochloride] | 35 | 0.17 | 0 |  |  |  |  |  |
| CC(Cc1ccc(OCCN2CCN(c3ccccc3)CC2)cc1)NCC(O)c1ccccc1F (centres unmarked) [Example 6, N-[2-(4-(2-(1-(4-Phenyl)piperazinyl)ethox)phenyl)-1-methylethyl]-2-hydroxy-2-(2-fluorophenyl)ethanamine trihydrochloride] | 44 | 0.35 | 28 |  |  | 14 |  |  |
| COC(CNC(C)Cc1ccc(OCCN2CCN(c3ccccc3)CC2)cc1)c1cccc(Cl)c1 (centres unmarked) [Example 15, N-[2-(4-(2-(1-(4-Phenyl)piperazinyl)ethoxy)phenyl)-1-methylethyl]-2-methoxy-2-(3-chlorophenyl)ethanamine trihydrochloride] |  |  |  |  |  |  |  | 47 |
